Test results: ChEMBL document CHEMBL1201862, “PubChem BioAssay data set” (2004)
Activity calls are given as the source filed them.

Experiments:
Cytochrome P450 2C9 = Cytochrome P450 2C9 (Homo sapiens, UniProt P11712)
HEK293 [1] = assay: inhibitors of LMP1-driven NF-kB reporter, dose response, cell-based, HEK293, luciferase, cherry-pick (AID 588343); format: functional; details: Homo sapiens
[2] = C. albicans growth with fluconazole, confirmation, fluorescence, retest (AID 2467); format: functional, cell-based
[3] = target: Serine/threonine-protein phosphatase (Candida dubliniensis (strain CD36 / CBS 7987 / NCPF 3949 / NRRLY-17841) (Yeast), UniProt B9W6M3); assay: calcineurin pathway inhibitors in yeast reporter, dose response, S. cerevisiae, CDRE-lacZ, luminescence, secondary (AID 2388); format: functional, cell-based;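 also: yeast reporter cells carrying a calcineurin-responsive lacZ construct stimulated with calcium chloride; luminescent beta-galactosidase reporter signal in whole cells rather than isolated phosphatase activity; potency for inhibition where a drop in reporter signal means calcineurin blockade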
Chain of Serine/threonine-protein phosphatase (B9W6M3 whole entry): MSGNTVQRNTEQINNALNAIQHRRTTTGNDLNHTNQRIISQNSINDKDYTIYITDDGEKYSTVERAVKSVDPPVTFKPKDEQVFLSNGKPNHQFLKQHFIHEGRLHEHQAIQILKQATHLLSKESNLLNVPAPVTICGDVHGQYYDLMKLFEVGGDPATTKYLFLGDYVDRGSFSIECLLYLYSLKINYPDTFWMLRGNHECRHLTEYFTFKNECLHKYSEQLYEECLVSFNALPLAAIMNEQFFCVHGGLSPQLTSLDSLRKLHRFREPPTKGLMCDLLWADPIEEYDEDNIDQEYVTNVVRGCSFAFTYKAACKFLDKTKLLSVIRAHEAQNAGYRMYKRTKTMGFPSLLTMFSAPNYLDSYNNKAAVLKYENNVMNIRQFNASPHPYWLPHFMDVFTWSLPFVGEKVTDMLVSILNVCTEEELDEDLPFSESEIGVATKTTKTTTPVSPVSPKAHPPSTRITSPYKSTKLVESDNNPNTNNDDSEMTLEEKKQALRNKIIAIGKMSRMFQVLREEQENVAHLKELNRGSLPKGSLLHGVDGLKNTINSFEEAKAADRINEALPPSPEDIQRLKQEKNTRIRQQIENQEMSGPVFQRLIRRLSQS

[4] = NIH-3T3 fibroblast cytotoxicity, dose response, cytotoxicity control, cell-based, fluorescence, Alamar Blue, secondary assay (AID 2327); format: functional;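 also: NIH-3T3 mouse fibroblasts cultured with fluconazole at 8 µg/mL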
[5] = target: ATP-dependent molecular chaperone HSP82 (Candida albicans (strain WO-1) (Yeast), UniProt C4YTQ8); assay: loss of DOC-induced GRE-beta-galactosidase reporter signal, dose response, Hsp90 inhibitor project, S. cerevisiae, luminescence (AID 2400); format: functional, cell-based;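 also: beta-galactosidase luminescence from glucocorticoid response element reporter as proxy for Hsp90 function; inhibitor potency where signal loss means Hsp90 inhibition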
Chain of ATP-dependent molecular chaperone HSP82 (C4YTQ8 whole entry): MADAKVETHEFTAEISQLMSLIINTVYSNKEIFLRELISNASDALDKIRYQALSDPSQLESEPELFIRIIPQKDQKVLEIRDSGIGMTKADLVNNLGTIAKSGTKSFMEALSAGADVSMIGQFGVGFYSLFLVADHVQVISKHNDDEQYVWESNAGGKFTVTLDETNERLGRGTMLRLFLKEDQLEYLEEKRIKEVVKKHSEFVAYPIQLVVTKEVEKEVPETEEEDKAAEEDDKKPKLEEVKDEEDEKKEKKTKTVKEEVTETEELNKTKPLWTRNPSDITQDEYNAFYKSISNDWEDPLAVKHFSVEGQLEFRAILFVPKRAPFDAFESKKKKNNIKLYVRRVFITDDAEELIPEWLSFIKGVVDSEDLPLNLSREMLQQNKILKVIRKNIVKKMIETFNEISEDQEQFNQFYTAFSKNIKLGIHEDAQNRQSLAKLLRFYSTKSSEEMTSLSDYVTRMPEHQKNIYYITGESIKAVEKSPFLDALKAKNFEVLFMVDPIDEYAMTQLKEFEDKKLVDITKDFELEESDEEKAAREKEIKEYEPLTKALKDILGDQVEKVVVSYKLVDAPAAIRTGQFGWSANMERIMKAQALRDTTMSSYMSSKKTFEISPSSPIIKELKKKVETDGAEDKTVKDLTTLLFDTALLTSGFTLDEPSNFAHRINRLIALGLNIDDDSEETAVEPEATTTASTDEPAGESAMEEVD

[6] = control 3'UTR Renilla luciferase suppression, dose response, counter-screen for Shn3 inhibitor project, cell-based, Clone20-Shn3RL, cherry-picked (AID 624133); format: functional
Protein skinhead-1 = target: T1, Protein skinhead-1 (Caenorhabditis elegans, UniProt P34707); format: functional
T1 sequence (P34707 whole entry): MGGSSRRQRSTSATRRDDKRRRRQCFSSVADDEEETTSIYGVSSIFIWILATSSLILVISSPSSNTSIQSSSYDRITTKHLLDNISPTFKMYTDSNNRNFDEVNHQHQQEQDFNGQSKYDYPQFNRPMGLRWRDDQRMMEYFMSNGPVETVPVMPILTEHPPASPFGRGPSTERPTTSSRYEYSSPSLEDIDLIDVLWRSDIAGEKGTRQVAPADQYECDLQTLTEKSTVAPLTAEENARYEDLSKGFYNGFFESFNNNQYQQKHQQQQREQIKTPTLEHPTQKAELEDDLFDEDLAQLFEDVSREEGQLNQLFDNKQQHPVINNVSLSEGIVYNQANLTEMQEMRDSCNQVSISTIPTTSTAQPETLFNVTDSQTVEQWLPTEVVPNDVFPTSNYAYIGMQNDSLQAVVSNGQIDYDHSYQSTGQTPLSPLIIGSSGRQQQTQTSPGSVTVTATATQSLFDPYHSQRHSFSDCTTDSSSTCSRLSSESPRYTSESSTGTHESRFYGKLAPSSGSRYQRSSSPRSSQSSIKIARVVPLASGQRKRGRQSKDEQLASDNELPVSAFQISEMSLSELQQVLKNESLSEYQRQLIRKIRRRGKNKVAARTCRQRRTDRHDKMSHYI

[7] = Shn3 3'UTR reporter inhibitors, dose response, cell-based, Clone20 osteoblasts, firefly luciferase, cherry-picked (AID 624132); format: functional;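 also: firefly luciferase luminescence from reporter carrying the Shn3 3'UTR in osteoblasts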
HeLa = assay: HeLa cell cytotoxicity, dose response, cytotoxicity control for MITF activator project, CellTiter-Glo luminescence, cherry-pick samples (AID 540259); format: functional, cell-based; details: Homo sapiens
H4 = assay: Luminescence Cell-Based Dose Response HTS to Identify Activators of 5'UTR Stem-Loop Driven Prion Protein mRNA Translation in H4 Neuroglioblastoma Cells. [Related pubchem assays: 1829 (Project Summary), 1814 (Primary HTS)]; format: functional; details: Homo sapiens
[8] = Luminescence Cell-Based Dose Confirmation HTS to Identify Activators of 5'UTR Stem-Loop Driven Alpha-Synuclein mRNA Translation in H4 Neuroglioblastoma Cells. [Related pubchem assays: 1829 (Project Summary), 1814 (Primary HTS)]; format: functional
[9] = Luminescence Cell-Based Dose Response HTS to Identify Activators of Luciferase Translation or Activity in H4 […] Cells. [Related pubchem assays: 1829 (Project Summary), 1814 (Primary HTS)]; format: functional
[10] = target: T2, Nuclear receptor subfamily 0 group B member 1 (Homo sapiens, UniProt P51843); assay: Luminescence-based cell-based high throughput dose response assay for inhibitors of the orphan nuclear receptor subfamily 0, group B, member 1 (DAX1; NR0B1). [Related pubchem assays (depositor defined):AID504766, AID504790]; format: functional
T2 sequence (P51843 whole entry): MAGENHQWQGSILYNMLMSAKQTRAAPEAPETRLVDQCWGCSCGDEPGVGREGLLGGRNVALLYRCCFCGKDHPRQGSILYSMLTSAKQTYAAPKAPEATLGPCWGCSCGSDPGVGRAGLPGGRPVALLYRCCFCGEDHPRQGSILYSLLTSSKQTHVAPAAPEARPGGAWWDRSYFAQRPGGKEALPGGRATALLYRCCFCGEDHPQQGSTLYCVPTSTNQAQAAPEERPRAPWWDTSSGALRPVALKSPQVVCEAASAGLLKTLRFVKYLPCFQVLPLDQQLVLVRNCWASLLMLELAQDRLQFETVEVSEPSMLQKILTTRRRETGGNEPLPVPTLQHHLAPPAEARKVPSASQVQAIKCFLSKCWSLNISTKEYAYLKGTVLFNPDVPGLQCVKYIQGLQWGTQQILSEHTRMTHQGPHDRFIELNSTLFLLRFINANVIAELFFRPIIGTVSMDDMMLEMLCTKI

HEK293 [11] = assay: cells; format: functional, cell-based; details: Homo sapiens
Trypsin = Trypsin (Sus scrofa, UniProt P00761); assay: porcine trypsin inhibitors, dose response, selectivity assay for Rce1 protease inhibitor project, biochemical, quenched peptide fluorescence, cherry-pick (AID 488789)
Chain of Trypsin (P00761 whole entry): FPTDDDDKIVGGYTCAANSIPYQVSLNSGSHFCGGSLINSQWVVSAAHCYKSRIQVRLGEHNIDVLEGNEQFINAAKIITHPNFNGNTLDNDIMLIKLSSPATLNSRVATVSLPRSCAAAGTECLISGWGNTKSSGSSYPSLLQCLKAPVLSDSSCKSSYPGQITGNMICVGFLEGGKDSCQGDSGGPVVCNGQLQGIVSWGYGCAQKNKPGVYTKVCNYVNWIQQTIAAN

CAAX prenyl protease 2 [12] = target: CAAX prenyl protease 2 (Homo sapiens, UniProt Q9Y256); assay: human Rce1 protease inhibitors, dose response, biochemical, yeast membranes, quenched-peptide fluorescence, cherry-pick (AID 588849)
Chain of CAAX prenyl protease 2 (Homo sapiens, UniProt Q9Y256) (Q9Y256 whole entry): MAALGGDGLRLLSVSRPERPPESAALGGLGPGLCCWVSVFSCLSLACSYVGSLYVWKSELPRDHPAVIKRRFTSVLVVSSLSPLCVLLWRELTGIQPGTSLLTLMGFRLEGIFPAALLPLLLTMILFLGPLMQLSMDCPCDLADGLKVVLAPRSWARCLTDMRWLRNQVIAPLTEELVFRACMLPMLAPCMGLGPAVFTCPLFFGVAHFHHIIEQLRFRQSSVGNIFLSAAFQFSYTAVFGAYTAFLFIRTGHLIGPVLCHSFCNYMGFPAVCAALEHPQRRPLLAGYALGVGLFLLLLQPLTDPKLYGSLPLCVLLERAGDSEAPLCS

CAAX prenyl protease 2 [13] = target: T3, CAAX prenyl protease 2 (Saccharomyces cerevisiae S288c, UniProt Q03530); format: biochemical
T3 sequence (Q03530 whole entry): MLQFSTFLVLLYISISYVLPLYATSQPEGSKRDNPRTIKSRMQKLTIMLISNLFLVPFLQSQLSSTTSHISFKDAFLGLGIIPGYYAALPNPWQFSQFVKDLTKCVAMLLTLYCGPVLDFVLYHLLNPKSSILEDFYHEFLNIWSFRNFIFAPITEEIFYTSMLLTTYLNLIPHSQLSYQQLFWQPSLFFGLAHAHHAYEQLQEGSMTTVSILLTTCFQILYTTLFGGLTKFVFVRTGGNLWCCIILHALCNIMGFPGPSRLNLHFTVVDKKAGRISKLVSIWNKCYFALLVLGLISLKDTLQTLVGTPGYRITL

[14] = target: T4, Sentrin-specific protease 7 (Homo sapiens, UniProt Q9BQF6); format: functional;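 also: Luminescence-based dose-response confirmation of ultra-high-throughput screening hits, measuring inhibition of SENP7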
T4 sequence (Q9BQF6 whole entry): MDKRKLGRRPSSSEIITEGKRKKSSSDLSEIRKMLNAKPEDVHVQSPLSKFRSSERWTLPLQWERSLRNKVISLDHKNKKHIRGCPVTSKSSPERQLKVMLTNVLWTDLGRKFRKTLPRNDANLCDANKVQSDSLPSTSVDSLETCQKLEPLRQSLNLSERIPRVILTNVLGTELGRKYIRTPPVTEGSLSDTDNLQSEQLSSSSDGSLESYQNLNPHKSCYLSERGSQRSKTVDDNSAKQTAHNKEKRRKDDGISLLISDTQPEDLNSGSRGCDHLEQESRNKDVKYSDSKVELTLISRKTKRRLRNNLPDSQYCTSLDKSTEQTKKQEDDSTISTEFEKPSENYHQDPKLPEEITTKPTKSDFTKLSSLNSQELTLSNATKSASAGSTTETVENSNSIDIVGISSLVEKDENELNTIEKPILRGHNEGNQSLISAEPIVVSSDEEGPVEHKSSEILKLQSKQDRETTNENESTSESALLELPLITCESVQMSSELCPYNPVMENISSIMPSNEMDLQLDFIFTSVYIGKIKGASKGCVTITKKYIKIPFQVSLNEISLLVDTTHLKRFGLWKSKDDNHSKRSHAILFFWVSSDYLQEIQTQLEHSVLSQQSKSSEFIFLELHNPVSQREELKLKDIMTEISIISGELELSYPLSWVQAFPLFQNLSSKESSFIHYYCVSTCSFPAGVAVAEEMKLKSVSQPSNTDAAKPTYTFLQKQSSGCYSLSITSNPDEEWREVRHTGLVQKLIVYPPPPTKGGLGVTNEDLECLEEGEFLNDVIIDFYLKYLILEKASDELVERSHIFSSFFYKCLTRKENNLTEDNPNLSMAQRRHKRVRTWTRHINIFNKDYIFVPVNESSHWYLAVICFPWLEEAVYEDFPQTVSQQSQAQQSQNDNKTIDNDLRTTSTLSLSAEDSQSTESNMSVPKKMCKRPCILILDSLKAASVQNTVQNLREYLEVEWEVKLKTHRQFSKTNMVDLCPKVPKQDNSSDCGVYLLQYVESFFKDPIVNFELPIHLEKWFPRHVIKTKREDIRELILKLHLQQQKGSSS

[15] = target: T5, Sentrin-specific protease 8 (Homo sapiens, UniProt Q96LD8); format: functional;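 also: luminescence read-out of SENP8 inhibition, dose-response confirmation following an ultra-high-throughput screen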
T5 sequence (Q96LD8 whole entry): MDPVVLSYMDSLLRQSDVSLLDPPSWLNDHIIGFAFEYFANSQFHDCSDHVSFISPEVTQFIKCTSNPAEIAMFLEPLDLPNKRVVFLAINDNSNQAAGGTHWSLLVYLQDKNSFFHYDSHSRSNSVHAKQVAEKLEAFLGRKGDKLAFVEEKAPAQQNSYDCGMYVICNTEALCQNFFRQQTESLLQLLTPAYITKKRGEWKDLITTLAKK

[16] = target: T6, Sentrin-specific protease 6 (Homo sapiens, UniProt Q9GZR1); format: functional;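 also: Luminescence-based dose-response confirmatory assay of SENP6 inhibition, following up an ultra-high-throughput screen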
T6 sequence (Q9GZR1 whole entry): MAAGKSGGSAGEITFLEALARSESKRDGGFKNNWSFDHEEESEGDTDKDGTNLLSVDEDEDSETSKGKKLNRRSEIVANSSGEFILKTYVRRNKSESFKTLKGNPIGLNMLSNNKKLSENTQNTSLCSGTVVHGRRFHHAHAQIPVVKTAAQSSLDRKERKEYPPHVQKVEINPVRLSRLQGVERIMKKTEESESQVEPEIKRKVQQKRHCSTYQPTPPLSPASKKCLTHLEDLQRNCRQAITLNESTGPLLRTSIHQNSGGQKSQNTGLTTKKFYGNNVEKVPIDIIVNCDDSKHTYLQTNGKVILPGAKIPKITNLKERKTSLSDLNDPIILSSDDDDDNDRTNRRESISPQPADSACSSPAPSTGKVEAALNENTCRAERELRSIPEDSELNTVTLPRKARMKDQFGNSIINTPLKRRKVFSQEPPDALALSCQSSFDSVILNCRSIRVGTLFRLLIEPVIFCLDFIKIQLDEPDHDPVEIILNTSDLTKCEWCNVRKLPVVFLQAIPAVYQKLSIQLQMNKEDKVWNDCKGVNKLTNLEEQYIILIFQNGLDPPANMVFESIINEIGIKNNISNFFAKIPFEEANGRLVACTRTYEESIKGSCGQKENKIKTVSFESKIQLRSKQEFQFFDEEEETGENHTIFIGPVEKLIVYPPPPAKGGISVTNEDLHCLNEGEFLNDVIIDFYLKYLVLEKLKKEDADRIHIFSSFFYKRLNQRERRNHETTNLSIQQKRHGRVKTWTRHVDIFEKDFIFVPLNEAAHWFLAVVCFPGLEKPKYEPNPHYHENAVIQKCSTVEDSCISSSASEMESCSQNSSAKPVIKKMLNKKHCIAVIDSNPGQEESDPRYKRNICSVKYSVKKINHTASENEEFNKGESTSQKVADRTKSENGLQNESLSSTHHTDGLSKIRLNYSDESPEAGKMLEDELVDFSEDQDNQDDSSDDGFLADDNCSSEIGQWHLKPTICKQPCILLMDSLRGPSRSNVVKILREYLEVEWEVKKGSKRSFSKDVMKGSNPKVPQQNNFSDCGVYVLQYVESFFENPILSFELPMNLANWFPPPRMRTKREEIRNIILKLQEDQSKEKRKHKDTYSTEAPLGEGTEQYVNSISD

Caspase-3 = target: T7, Caspase-3 (Homo sapiens, UniProt P42574); format: functional;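 also: Dose-response selectivity test against caspase-3 for candidate inhibitors of sentrin-specific proteases (SENPs)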
T7 sequence (P42574 whole entry): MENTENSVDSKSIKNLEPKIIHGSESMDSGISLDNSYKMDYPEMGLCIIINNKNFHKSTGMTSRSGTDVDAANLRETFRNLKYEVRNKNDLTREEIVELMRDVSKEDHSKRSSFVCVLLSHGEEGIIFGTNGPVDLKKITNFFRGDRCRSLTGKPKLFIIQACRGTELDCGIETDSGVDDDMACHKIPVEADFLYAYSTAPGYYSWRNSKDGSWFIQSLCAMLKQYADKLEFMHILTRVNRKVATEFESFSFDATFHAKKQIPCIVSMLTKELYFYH

Chain of Cytochrome P450 2C9 (P11712 whole entry): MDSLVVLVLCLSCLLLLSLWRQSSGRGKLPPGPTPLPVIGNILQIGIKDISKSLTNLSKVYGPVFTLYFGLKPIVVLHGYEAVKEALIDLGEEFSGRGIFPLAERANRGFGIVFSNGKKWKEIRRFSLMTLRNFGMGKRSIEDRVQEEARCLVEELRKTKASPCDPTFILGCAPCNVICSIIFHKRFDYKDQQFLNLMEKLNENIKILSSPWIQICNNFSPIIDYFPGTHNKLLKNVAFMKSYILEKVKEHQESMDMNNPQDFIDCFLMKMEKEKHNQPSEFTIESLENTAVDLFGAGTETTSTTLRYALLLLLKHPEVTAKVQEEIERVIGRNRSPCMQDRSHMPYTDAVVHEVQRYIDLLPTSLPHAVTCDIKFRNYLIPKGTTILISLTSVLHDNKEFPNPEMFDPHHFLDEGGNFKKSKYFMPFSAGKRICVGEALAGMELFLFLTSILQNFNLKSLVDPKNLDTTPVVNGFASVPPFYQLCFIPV

Cc1cccc(CNc2ncnc3ccc(-c4ccoc4)cc23)c1
AC50 (Cytochrome P450 2C9): 1 µM (inconclusive)
AC50 (HEK293 [1]): 35.1 µM (active)

Cc1c(OCC(=O)NCC(O)c2ccccc2)ccc2c(-c3ccccc3)cc(=O)oc12 (stereo unspecified)
EC50 [2]: 0.699 µM (active)
EC50 [3]: > 180 µM (inactive)
EC50 [4]: 80.8 µM (active)
EC50 [5]: > 160 µM (inactive)

Cc1ccc(-c2nc3cccnc3o2)cc1NC(=O)COc1ccc(C(C)(C)C)cc1
AC50 [6]: 14.6 µM (active)
IC50 (Protein skinhead-1): > 100 µM (inactive)
AC50 (HEK293 [1]): 36.3 µM (active)
AC50 [7]: 10.8 µM (active)

O=c1c2ccccc2oc2cc(-c3ccc4cc[nH]c4c3)ccc12
AC50 (HeLa): 53.5 µM (active)

O=c1oc2cc(Cl)ccc2n1CSc1nc2ccccc2s1
AC50 (HeLa): 216 µM (active)
EC50 (H4): 50.8 µM (active)
EC50 [8]: 24.1 µM (active)
EC50 [9]: 24.4 µM (active)

O=C(CNC(=O)c1cc(O)nc2ccccc12)Nc1ccc(F)c(F)c1
IC50 [10]: > 67.5 µM (inactive)
IC50 (HEK293 [11]): > 67.5 µM (inactive)

Cc1oc2c(CN3CCOCC3)c(O)ccc2c(=O)c1-c1ccccc1
AC50 (Trypsin): 9.64 µM (active)
AC50 (CAAX prenyl protease 2 [12]): 10.3 µM (active)
AC50 (CAAX prenyl protease 2 [13]): 11 µM (active)

COc1ccc(C2C3=C(O)CC(C)(C)CC3=Nc3[nH]nc(C)c32)cc1 (stereo unspecified)
AC50 (Trypsin): > 100 µM (inactive)
AC50 (CAAX prenyl protease 2 [12]): 13.5 µM (active)

O=C(Nc1cccs1)Nc1ccccc1Br
IC50 [14]: 8.26 µM (active)
IC50 [15]: 57.6 µM (active)
IC50 [16]: 33.5 µM (active)
IC50 (Caspase-3): 20.3 µM (active)
